{"source": "patent US7939509B2", "about": "“Partial and full agonists of A1 adenosine receptors” (Gilead Sciences, Inc., priority 2002, dated 2011)", "key": {"C57BL/J6 mice": {"tested_on": "C57BL/J6 mice", "assay": "Hyperinsulinemic euglycemic clamp in C57BL/J6 mice on high fat diet for 12 weeks", "assay_type": "in vivo, mouse", "details": "2.5 mg/kg or 5.0 mg/kg ip 15 min prior to clamp", "procedure": "C57BL/J6 mice were maintained on normal chow or a HF diet (Bovine Lard, 23 wt/wt %, 44 energy % provided by the lard) for 12 weeks to induce insulin resistance. At the end of 12 weeks a hyperinsulinemic euglycemic clamp analysis was performed to measure insulin sensitivity in the absence and presence of Compound A. Compound A was given via an ip injection 15 minutes before the clamp protocol was started. After an overnight fast, glucose turnover studies were performed as described previously (6; 11). Briefly, animals were anesthetized; an infusion needle was placed in one of the tail veins. Thereafter, a bolus of insulin was given and a hyperinsulinemic clamp was started by continuous infusion of insulin. Blood samples were taken every 10 minutes (tail bleeding) to monitor plasma glucose levels. A variable infusion of 12.5% D-glucose (in PBS) solution was started at time 0 and adjusted to maintain blood glucose at ˜6.0 mM. When steady state glucose levels were reached (approximately 1 hour after start of the insulin infusion) a final blood sample was taken (for measurement of plasma insulin) and the hyperinsulinemic euglycemic clamp was terminated."}, "Sprague-Dawley rats": {"tested_on": "Sprague-Dawley rats", "assay": "Acute effect on insulin, FFA and TG in rats fed chow or high fat diet for 2 weeks", "assay_type": "in vivo, rat", "details": "1 mg/kg oral gavage, 4 hr fast", "description": "FIG. 8 graphically illustrates the time-course of the effect of Compound A on serum (A) insulin, (B) free fatty acids (FFA), and (C) triglycerides (TG) in rats fed normal diet (ND) and high fat diet (HFD) for 2 weeks as discussed in Example 32. Animals were fasted for four hours before the experiment. Compound A was administered via oral gavage at a dose of 1 mg/kg. Values represent mean±SEM from number of animals indicated in the parenthesis for each group.\nAll experimental procedures were performed under a protocol approved by the IACUC (CV Therapeutics, Inc.) and in accordance with the recommendations set forth in the Guide for the Care and Use of Laboratory Animals published by the National Research Council. Male Sprague-Dawley rats (225-250 gm) with either one or two indwelling catheters (carotid and jugular) were obtained from Charles River Laboratories (Wilmington, Mass.). Animals were housed 1 per cage in a room maintained on a 12 h light/dark cycle (light on 06.00-18.00 h) under constant temperature (22-25° C.) and with ad libitum access to food and water. Rats on normal diet (Chow) were fed standard laboratory chow (12% fat, 60% carbohydrate, and 28% protein) throughout the study, while animals in the high fat (HF) diet group were given a diet (TD88137 from Harlan Teklad, Madison, Wis.) containing 42% fat, 43% carbohydrate, and 15% protein.\nThe anti-lipolytic effects of Compound A (see chemical name below) were studied in awake rats. On the day of the experiment, animals were put in metabolic cages and left undisturbed to acclimate to the environment for 1-2 hrs. An infusion set (21 G×¾″, 0.8×19 mm U.T.W., 3½″, 9 cm tubing, volume 0.15 ml) was connected to the arterial catheter for blood sampling. A 1% sodium citrate saline solution was used to flush the lines. A pre-treatment blood sample was obtained from each animal to determine baseline values for glucose, insulin, FFA and TG. Blood samples were collected into plasma and serum separator tubes (Becton Dickinson, Franklin Lakes, N.J.) at pre-determined time points. Oral glucose tolerance test (OGTT) was performed by giving 2 gm/kg of glucose load. Compound A was given via an oral gavage 15 minutes prior to the glucose load. For chronic experiments Compound A was administered twice a day via subcutaneous injection at a dose of 5 mg/kg for 2 weeks. An OGTT was performed at the end of two weeks at ˜2 hrs after the last dose of Compound A.\nCompound A (2-{6-[((1R,2R)-2-hydroxycyclopentyl)amino]purin-9-yl}(4S,5S,2R,3R)-5-[(2-fluorophenylthio)methyl]oxolane-3,4-diol) was synthesized by the Department of Medicinal and Bio-Organic chemistry of CV Therapeutics, Inc. Sodium citrate was purchased from Sigma (St. Louis, Mo.). PEG 400 was purchased from VWR (by EMD Chemicals). Triton WR1339 was diluted in warm saline (˜37° C.) with frequent vortexing. Compound A was dissolved in. PEG 400, and then diluted with distilled water to make a 20% PEG drug solution. FFA and TGs were measured using commercial kits from Wako Chemicals, (Richmond, Va.). Glucose and Insulin were measured using commercial kits from Thermo Electron Corporation (Waltham, Mass.) and Crystal Chem (Downers Grove, Ill.), respectively.\nAll data are reported as mean±SEM. Statistical analysis of data from experiments with 2 treatment groups was performed using the unpaired Student's t-test. One way analysis of variance (ANOVA) followed by Newman-Keuls posthoc analysis was used for multiple comparisons. Data form OGTT was analyzed by calculating area under the curve (AUC) using prism graphpad software. Differences between/among treatment groups were considered to be significant when the probability of their occurrence by chance alone was <0.05."}, "rats fed high fat diet": {"tested_on": "rats fed high fat diet", "assay": "Oral glucose tolerance test after a single dose in high fat diet rats", "assay_type": "in vivo, rat", "details": "1 mg/kg oral gavage 15 min before 2 gm/kg glucose load, HF rats", "procedure": "Data is presented as mean±SEM from number of animals indicated in the parenthesis for each group. […] All experimental procedures were performed under a protocol approved by the IACUC (CV Therapeutics, Inc.) and in accordance with the recommendations set forth in the Guide for the Care and Use of Laboratory Animals published by the National Research Council. Male Sprague-Dawley rats (225-250 gm) with either one or two indwelling catheters (carotid and jugular) were obtained from Charles River Laboratories (Wilmington, Mass.). Animals were housed 1 per cage in a room maintained on a 12 h light/dark cycle (light on 06.00-18.00 h) under constant temperature (22-25° C.) and with ad libitum access to food and water. Rats on normal diet (Chow) were fed standard laboratory chow (12% fat, 60% carbohydrate, and 28% protein) throughout the study, while animals in the high fat (HF) diet group were given a diet (TD88137 from Harlan Teklad, Madison, Wis.) containing 42% fat, 43% carbohydrate, and 15% protein. […] On the day of the experiment, animals were put in metabolic cages and left undisturbed to acclimate to the environment for 1-2 hrs. An infusion set (21 G×¾″, 0.8×19 mm U.T.W., 3½″, 9 cm tubing, volume 0.15 ml) was connected to the arterial catheter for blood sampling. A 1% sodium citrate saline solution was used to flush the lines. A pre-treatment blood sample was obtained from each animal to determine baseline values for glucose, insulin, FFA and TG. Blood samples were collected into plasma and serum separator tubes (Becton Dickinson, Franklin Lakes, N.J.) at pre-determined time points. Oral glucose tolerance test (OGTT) was performed by giving 2 gm/kg of glucose load. Compound A was given via an oral gavage 15 minutes prior to the glucose load. […] Statistical analysis of data from experiments with 2 treatment groups was performed using the unpaired Student's t-test. One way analysis of variance (ANOVA) followed by Newman-Keuls posthoc analysis was used for multiple comparisons. Data form OGTT was analyzed by calculating area under the curve (AUC) using prism graphpad software. […]"}}, "note": "Entries after “also recorded” stand apart in the source; their conditions may differ.", "data": [{"smiles": "O[C@@H]1[C@H](O)[C@@H](CSc2ccccc2F)O[C@H]1n1cnc2c(N[C@@H]3CCC[C@H]3O)ncnc21", "note": "[Compound A, 2-{6-[((1R,2R)-2-hydroxycyclopentyl)amino]purin-9-yl}(4S,5S,2R,3R)-5-[(2-fluorophenylthio)methyl]oxolane-3,4-diol]", "values": [{"measurement": "insulin-mediated glucose disposal / glucose infusion rate (GIR) vs untreated HF mice", "setting": "C57BL/J6 mice", "result": "significant differences (p<0.01); also recorded: significantly greater (p<0.01)"}, {"measurement": "decrease in FFA concentration from 0 to 30 min", "setting": "Sprague-Dawley rats; Chow rats", "result": "0.24 ± 0.07", "unit": "mM"}, {"measurement": "decrease in TG concentration from 0 to 30 min", "setting": "Sprague-Dawley rats; Chow rats", "result": "17 ± 3", "unit": "mg/dL"}, {"measurement": "decrease in insulin concentration from 0 to 30 min", "setting": "Sprague-Dawley rats; Chow rats", "result": "0.8 ± 0.32", "unit": "ng/mL"}, {"measurement": "decrease in FFA concentration from 0 to 30 min", "setting": "Sprague-Dawley rats; HF rats", "result": "0.65 ± 0.1", "unit": "mM"}, {"measurement": "decrease in TG concentration from 0 to 30 min", "setting": "Sprague-Dawley rats; HF rats", "result": "46 ± 15", "unit": "mg/dL"}, {"measurement": "decrease in insulin concentration from 0 to 30 min", "setting": "Sprague-Dawley rats; HF rats", "result": "2.37 ± 0.85", "unit": "ng/mL"}, {"measurement": "total glucose response area in OGTT", "setting": "rats fed high fat diet", "result": "no differences"}, {"measurement": "total insulin response area (AUC) in OGTT", "setting": "rats fed high fat diet", "result": "significantly (p<0.05) decreased; also recorded: no different than the insulin response of chow-fed rats given vehicle"}]}]}
